In the supplement of paper PMC10307832:

Key:
Assay in all cases: relative viability (nuclei count vs DMSO), 5 days (fraction); higher = more cells survive
[1] = compound: COc1cc(Nc2ncc3c(n2)-c2ccc(Cl)cc2C(c2c(F)cccc2OC)=NC3)ccc1C(=O)O [Alisertib] + CC1(C)CCC(c2ccc(Cl)cc2)=C(CN2CCN(c3ccc(C(=O)NS(=O)(=O)c4ccc(N[C@H](CCN5CCOCC5)CSc5ccccc5)c(S(=O)(=O)C(F)(F)F)c4)cc3)CC2)C1 [Navitoclax] (partner 0.5 µM)
Summary of the method: (§1)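 Lung cancer cell lines were seeded in 1536-well plates and dosed by pin tool the next day, with either a single drug or a fixed anchor-drug dose combined with five library-drug doses (not always all listed) spaced in √10 steps. Five days later, one step fixed the cells and stained their nuclei (final 0.05% Triton X-100, 1% formaldehyde, 1 ug/ml Hoechst), and nuclei were counted on 4× images. Relative viability is the nuclei count in treated wells divided by the count in vehicle wells, and each value is the median of duplicate plates.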

[2] = compound: COc1cc(Nc2ncc3c(n2)-c2ccc(Cl)cc2C(c2c(F)cccc2OC)=NC3)ccc1C(=O)O [Alisertib] + C[C@@H](Oc1cc(-c2cnn(C3CCNCC3)c2)cnc1N)c1c(Cl)ccc(F)c1Cl [Crizotinib] (partner 1 µM)
Summary of the method: as §1

[3] = compound: COc1cc(Nc2ncc3c(n2)-c2ccc(Cl)cc2C(c2c(F)cccc2OC)=NC3)ccc1C(=O)O [Alisertib] + Cc1nc(Nc2ncc(C(=O)Nc3c(C)cccc3Cl)s2)cc(N2CCN(CCO)CC2)n1 [Dasatinib] (partner 0.075 µM)
Summary of the method: as §1

[4] = compound: COc1cc(Nc2ncc3c(n2)-c2ccc(Cl)cc2C(c2c(F)cccc2OC)=NC3)ccc1C(=O)O [Alisertib] + O=C(CCCCCCC(=O)Nc1ccccc1)NO [Vorinostat] (partner 1 µM)
Summary of the method: as §1

Cell Line	relative viability ([1]; first compound 0.005 µM)	relative viability ([1]; first compound 0.01581 µM)	relative viability ([1]; first compound 0.05 µM)	relative viability ([1]; first compound 0.1581 µM)	relative viability ([1]; first compound 0.5 µM)	relative viability ([2]; first compound 0.005 µM)	relative viability ([2]; first compound 0.01581 µM)	relative viability ([2]; first compound 0.05 µM)	relative viability ([2]; first compound 0.1581 µM)	relative viability ([2]; first compound 0.5 µM)	relative viability ([3]; first compound 0.005 µM)	relative viability ([3]; first compound 0.01581 µM)	relative viability ([3]; first compound 0.05 µM)	relative viability ([3]; first compound 0.1581 µM)	relative viability ([3]; first compound 0.5 µM)	relative viability ([4]; first compound 0.005 µM)	relative viability ([4]; first compound 0.01581 µM)	relative viability ([4]; first compound 0.05 µM)	relative viability ([4]; first compound 0.1581 µM)	relative viability ([4]; first compound 0.5 µM)
PC-14	0.924	0.881	0.663	0.362	0.0849	0.845	0.877	0.654	0.145	0.112	0.213	0.248	0.177	0.0304	0.0192	0.627	0.63	0.367	0.0643	0.0761
NCI-H1437	1.02	0.892	0.498	0.282	0.144	0.855	0.878	0.45	0.338	0.141	0.35	0.403	0.314	0.17	0.0967	0.774	0.606	0.42	0.283	0.213
NCI-H2170	0.564	0.55	0.238	0.232	0.178	1.17	1.03	0.438	0.325	0.225	0.443	0.561	0.403	0.225	0.167	0.766	0.782	0.318	0.2	0.164
NCI-H441	0.925	0.365	0.106	0.158	0.132	0.626	0.555	0.131	0.178	0.136	0.621	0.332	0.186	0.165	0.176	0.692	0.723	0.373	0.217	0.185
SW 1573	0.954	0.737	0.219	0.0904	0.0636	0.776	0.466	0.434	0.248	0.113	0.329	0.299	0.141	0.159	0.0978	0.803	0.288	0.239	0.233	0.109
BEN	0.0634	0.063	0.0731	0.0469	0.0558	0.868	0.838	0.238	0.213	0.237	0.499	0.39	0.296	0.178	0.138	0.522	0.456	0.332	0.332	0.385
LC-2-ad	0.328	0.159	0.0861	0.114	0.0846	0.369	0.378	0.266	0.353	0.202	0.315	0.33	0.263	0.202	0.133	0.454	0.313	0.24	0.177	0.161
COR-L23	0.921	0.965	0.576	0.198	0.105	0.571	0.48	0.17	0.151	0.102	0.486	0.439	0.23	0.0935	0.0796	0.347	0.35	0.151	0.09	0.0909
NCI-H1650	0.967	0.613	0.286	0.145	0.131	0.975	0.71	0.359	0.255	0.276	0.325	0.298	0.164	0.138	0.125	0.57	0.488	0.388	0.176	0.185
SK-LU-1	0.841	0.736	0.101	0.139	0.112	0.775	0.628	0.389	0.362	0.239	0.192	0.157	0.116	0.125	0.104	0.749	0.427	0.287	0.251	0.246
NCI-H1915	0.686	0.577	0.275	0.235	0.13	0.777	0.721	0.307	0.317	0.192	0.297	0.299	0.295	0.148	0.14	0.496	0.473	0.374	0.206	0.161
NCI-H647	1.05	1.06	0.293	0.169	0.0658	0.91	0.625	0.241	0.193	0.109	0.186	0.16	0.104	0.0476	0.0381	0.49	0.156	0.106	0.112	0.0745
NCI-H2009	1.08	1.11	0.349	0.302	0.105	0.927	0.916	0.453	0.238	0.175	0.259	0.292	0.211	0.141	0.129	0.684	0.699	0.234	0.204	0.134
NCI-H2126	0.819	0.874	0.574	0.276	0.266	0.96	0.945	0.486	0.365	0.311	0.55	0.553	0.48	0.231	0.215	0.682	0.802	0.366	0.207	0.198
LXF-289	0.847	0.586	0.191	0.173	0.137	0.762	0.443	0.204	0.186	0.178	0.206	0.256	0.0522	0.0513	0.0398	0.587	0.493	0.189	0.139	0.188
PC-3 [JPC-3]	0.757	0.79	0.401	0.306	0.281	0.955	0.981	0.646	0.474	0.386	0.917	0.927	0.907	0.781	0.442	0.596	0.68	0.769	0.367	0.354
